# Measurements published in patent US12077503B2, “Substituted cyclic amides and their use as herbicides” (FMC CORPORATION, priority 2015, dated 2024).
# What was measured:
# Type in all cases: in vivo
# [1] = tested on: rice (Oryra sativa); assay: Test B flooded paddy test; settings: Oryza sativa, 250 g ai/ha, Flood; 0 to 100 scale where 0 is no effect and 100 is complete control; read-out: Rice plant response rating
# Outline: (§1)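 Visual ratings (0 none to 100 complete control) are relative to untreated plants, taken 13–15 d after treatment in a greenhouse. Test material went straight into floodwater standing 3 cm above the soil, kept constant, on plants at the 2-leaf stage.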
# [2] = tested on: barnyardgrass (Echinochloa crus-galli); assay: Test B flooded paddy test; settings: Echinochloa crus-galli, 250 g ai/ha, Flood; 0 to 100 scale where 0 is no effect and 100 is complete control; read-out: Barnyardgrass plant response rating
# Outline: as §1
# [3] = tested on: sedge, umbrella (small-flower umbrella sedge, Cyperus difformis); assay: Test B flooded paddy test; settings: Cyperus difformis, 250 g ai/ha, Flood; 0 to 100 scale where 0 is no effect and 100 is complete control; read-out: Sedge, Umbrella plant response rating
# Outline: as §1
# [4] = tested on: ducksalad (Heteranthera limosa); assay: Test B flooded paddy test; settings: Heteranthera limosa, 250 g ai/ha, Flood; 0 to 100 scale where 0 is no effect and 100 is complete control; read-out: Ducksalad plant response rating
# Outline: as §1
# [5] = tested on: pigweed (Amaranthus retroflexus); assay: Test A postemergence; settings: Amaranthus retroflexus, post-emergence, 240 h, postemergence; for pest or weed control at 125 g/ha: 125 g ai/ha, visual injury vs untreated controls after approx. 10 d, 0 = no effect, 100 = complete control, read-out: Pigweed plant response rating (0 to 100 scale); for pest or weed control at 500 g/ha: 500 g ai/ha, 0 to 100 scale, 0 is no effect, 100 is complete control, read-out: Pigweed plant response rating
# Outline: (§2)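 Ratings of 0 (no effect) to 100 (complete control) come from visual comparison with untreated controls roughly 10 d after treatment. Test chemicals, formulated in a non-phytotoxic solvent mixture with surfactant, were applied either as a preemergence directed soil spray on seeded soil or postemergence to one- to two-leaf plants 2 to 10 cm tall.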
# [6] = tested on: wheat (Triticum aestivum); assay: Test A postemergence; settings: Triticum aestivum, post-emergence, 240 h, postemergence; for plant injury at 125 g/ha: 125 g ai/ha, visual injury vs untreated controls after approx. 10 d, 0 = no effect, 100 = complete control, read-out: Wheat plant response rating (0 to 100 scale); for plant injury at 500 g/ha: 500 g ai/ha, 0 to 100 scale, 0 is no effect, 100 is complete control, read-out: Wheat plant response rating
# Outline: as §2
# [7] = tested on: blackgrass (Alopecurus myosuroides); assay: Test A postemergence; settings: Alopecurus myosuroides, post-emergence, 240 h, postemergence; for pest or weed control at 125 g/ha: 125 g ai/ha, visual injury vs untreated controls after approx. 10 d, 0 = no effect, 100 = complete control, read-out: Blackgrass plant response rating (0 to 100 scale); for pest or weed control at 500 g/ha: 500 g ai/ha, 0 to 100 scale, 0 is no effect, 100 is complete control, read-out: Blackgrass plant response rating
# Outline: as §2
# [8] = tested on: Kochia (Kochia scoparia); assay: Test A postemergence; settings: Bassia scoparia, post-emergence, 240 h, postemergence; for pest or weed control at 125 g/ha: 125 g ai/ha, visual injury vs untreated controls after approx. 10 d, 0 = no effect, 100 = complete control, read-out: Kochia plant response rating (0 to 100 scale); for pest or weed control at 500 g/ha: 500 g ai/ha, 0 to 100 scale, 0 is no effect, 100 is complete control, read-out: Kochia plant response rating
# Outline: as §2
# [9] = tested on: Galium (catchweed bedstraw, Galium aparine); assay: Test A postemergence; settings: Galium, post-emergence, 240 h, postemergence; for pest or weed control at 125 g/ha: 125 g ai/ha, visual injury vs untreated controls after approx. 10 d, 0 = no effect, 100 = complete control, read-out: Galium plant response rating (0 to 100 scale); for pest or weed control at 500 g/ha: 500 g ai/ha, 0 to 100 scale, 0 is no effect, 100 is complete control, read-out: Galium plant response rating
# Outline: as §2
# [10] = tested on: ragweed (common ragweed, Ambrosia elatior); assay: Test A postemergence; settings: Ambrosia artemisiifolia, post-emergence, 240 h, postemergence; for pest or weed control at 125 g/ha: 125 g ai/ha, visual injury vs untreated controls after approx. 10 d, 0 = no effect, 100 = complete control, read-out: Ragweed plant response rating (0 to 100 scale); for pest or weed control at 500 g/ha: 500 g ai/ha, 0 to 100 scale, 0 is no effect, 100 is complete control, read-out: Ragweed plant response rating
# Outline: as §2
# [11] = tested on: corn (Zea mays); assay: Test A postemergence; settings: Zea mays, post-emergence, 240 h, postemergence; for plant injury at 125 g/ha: 125 g ai/ha, visual injury vs untreated controls after approx. 10 d, 0 = no effect, 100 = complete control, read-out: Corn plant response rating (0 to 100 scale); for plant injury at 500 g/ha: 500 g ai/ha, 0 to 100 scale, 0 is no effect, 100 is complete control, read-out: Corn plant response rating
# Outline: as §2
# [12] = tested on: ryegrass, Italian (Italian ryegrass, Lolium multiflorum); assay: Test A postemergence; settings: Lolium multiflorum, post-emergence, 240 h, postemergence; for pest or weed control at 125 g/ha: 125 g ai/ha, visual injury vs untreated controls after approx. 10 d, 0 = no effect, 100 = complete control, read-out: Ryegrass, Italian plant response rating (0 to 100 scale); for pest or weed control at 500 g/ha: 500 g ai/ha, 0 to 100 scale, 0 is no effect, 100 is complete control, read-out: Ryegrass, Italian plant response rating
# Outline: as §2
# [13] = tested on: giant foxtail (Setaria faberii); assay: Test A postemergence; settings: Setaria faberi, post-emergence, 240 h, postemergence; for pest or weed control at 125 g/ha: 125 g ai/ha, visual injury vs untreated controls after approx. 10 d, 0 = no effect, 100 = complete control, read-out: Foxtail, Giant plant response rating (0 to 100 scale); for pest or weed control at 500 g/ha: 500 g ai/ha, 0 to 100 scale, 0 is no effect, 100 is complete control, read-out: Foxtail, Giant plant response rating
# Outline: as §2
SMILES,pest or weed control at 250 g/ha [1] [%],pest or weed control at 250 g/ha [2] [%],pest or weed control at 250 g/ha [3] [%],pest or weed control at 250 g/ha [4] [%],pest or weed control at 125 g/ha [5] [%],pest or weed control at 500 g/ha [5] [%],plant injury at 125 g/ha [6] [%],plant injury at 500 g/ha [6] [%],pest or weed control at 125 g/ha [7] [%],pest or weed control at 500 g/ha [7] [%],pest or weed control at 125 g/ha [8] [%],pest or weed control at 500 g/ha [8] [%],pest or weed control at 125 g/ha [9] [%],pest or weed control at 500 g/ha [9] [%],pest or weed control at 125 g/ha [10] [%],pest or weed control at 500 g/ha [10] [%],plant injury at 125 g/ha [11] [%],plant injury at 500 g/ha [11] [%],pest or weed control at 125 g/ha [12] [%],pest or weed control at 500 g/ha [12] [%],further results
CN1C[C@H](c2ccc3c(c2)OC(F)(F)O3)[C@@H](C(=O)Nc2ccc(F)c(F)c2F)C1=O [Compound 1204],0,70,0,100,70,80,60,70,50,70,80,80,50,60,20,60,70,80,70,80,pest or weed control at 125 g/ha [13]: 90%; pest or weed control at 500 g/ha [13]: 90%
COc1ccc([C@H]2CN(C)C(=O)[C@@H]2C(=O)Nc2ccccc2F)c(OC)c1 [Compound 1215],0,0,0,70,0,0,0,0,0,0,0,30,0,0,0,0,0,0,0,0,pest or weed control at 125 g/ha [13]: 70%; pest or weed control at 500 g/ha [13]: 90%
COc1cc([C@H]2CN(C)C(=O)[C@@H]2C(=O)Nc2ccccc2F)cc(OC)c1OC [Compound 1217],25,0,0,40,0,0,0,0,0,0,0,0,0,0,0,0,0,0,0,0,pest or weed control at 125 g/ha [13]: 90%; pest or weed control at 500 g/ha [13]: 90%
